# According to patent US20020137929A1, “1 - (3-heterocyclylphenyl) isothiourea, -isourea, -guanidine and -amidine herbicidal agents” (Intellectual Property Department, BASF Aktiengesellschaft, priority 1998, published 2002):
# Experiments:
# [1] = tested on: CASOB (Sicklepod); assay: Postemergence herbicidal evaluation; assay type: in vivo, Cassia obtusifolia; conditions: postemergence
# Method in brief: (§1)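 Compound is applied as a foliar spray to seedlings about two weeks old, formulated in equal parts acetone and water with 0.5% TWEEN 20 and delivered at 40 psi to give about 0.0156–0.500 kg per hectare. Injury is rated visually 0–9 after four to five weeks.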
# [2] = tested on: CHEAL (Lambsquarters, Common); assay: Postemergence herbicidal evaluation; assay type: in vivo, Chenopodium album; conditions: postemergence
# Method in brief: as §1
# [3] = tested on: GALAP (Galium); assay: Postemergence herbicidal evaluation; assay type: in vivo, Galium aparine; conditions: postemergence
# Method in brief: as §1
# [4] = tested on: ORYSAT (Rice, Tebonnet); assay: Postemergence herbicidal evaluation; assay type: in vivo, Oryza sativa, (L.) Tebonnet; conditions: postemergence
# Method in brief: as §1
# [5] = tested on: ZEAMX (Corn, Field); assay: Postemergence herbicidal evaluation; assay type: in vivo, Zea mays; conditions: postemergence
# Method in brief: as §1
# [6] = tested on: AMBEL (Ragweed, Common); assay: Preemergence herbicidal evaluation; assay type: in vivo, Ambrosia artemisifolia; conditions: rated 4-5 weeks after treatment
# Method in brief: (§2)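 In this greenhouse assay, monocot and dicot seeds are planted in soil and treated prior to emergence with an aqueous acetone spray (about 0.0156-0.500 kg/ha). Plants are assessed visually against control on a 0-9 scale after 4-5 weeks.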
# [7] = tested on: SETVI (Foxtail, Green); assay: Preemergence herbicidal evaluation; assay type: in vivo, Setaria viridis; conditions: rated 4-5 weeks after treatment
# Method in brief: as §2
# [8] = tested on: GLXMAW (Soybean, Williams); assay: Preemergence herbicidal evaluation; assay type: in vivo, Glycine max, (L.) Merr. cv Williams; conditions: rated 4-5 weeks after treatment
# Method in brief: as §2
# [9] = tested on: ORYSAT (Rice, Tebonnet); assay: Preemergence herbicidal evaluation; assay type: in vivo, Oryza sativa, (L.) Tebonnet; conditions: rated 4-5 weeks after treatment
# Method in brief: as §2
# [10] = tested on: CYPSE (Flatsedge); assay: Preemergence weed control under flooded paddy conditions; assay type: in vivo, Cyperus serotinus; conditions: rated 3-4 weeks after treatment
# Method in brief: (§3)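 Flooded-pot preemergence screen with silt loam and seeds in the upper 0.5 cm. Dose about 0.0313 to 0.500 kg/ha, delivered into flood water; visual 0-9 score after 3 to 4 weeks.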
# [11] = tested on: MOOVA (Monochoria); assay: as above; assay type: in vivo, Monochoria vaginalis; conditions: rated 3-4 weeks after treatment
# Method in brief: as §3
# [12] = tested on: CYPIR (Rice Flatsedge); assay: Postemergence weed control under flooded paddy conditions; assay type: in vivo, Cyperus iria; conditions: postemergence weeds, 3-4 weeks after treatment
# Method in brief: (§4)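 With weeds 3 to 5 cm tall and rice at the 1.5 to 2.5 leaf stage, containers were flooded and water held 1.5 to 3 cm above soil. Compounds in 50/50 v/v aqueous/acetone went into the flood water at about 0.0313 to 0.500 kg/ha a.i. Effects were visually rated 0–9 against controls after three to four weeks in the greenhouse.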
# [13] = tested on: CYPSE (Flatsedge); assay: as above; assay type: in vivo, Cyperus serotinus; conditions: postemergence weeds, 3-4 weeks after treatment
# Method in brief: as §4
# [14] = tested on: SAGPY (Arrowhead (Pygmaea)); assay: as above; assay type: in vivo, Sagittaria pygmaea; conditions: postemergence weeds, 3-4 weeks after treatment
# Method in brief: as §4
smiles,measurement,setting,value
CCOC(=O)CN1C(=O)C(CC(=O)O)S/C1=N/c1cc(-n2c(=O)cc(C(F)(F)F)n(C)c2=O)c(F)cc1Cl (centres unmarked) [Compound 16],CASOB herbicidal rating,[1]; rate 0.0157 kg/ha,9.0
same,CASOB herbicidal rating,[1]; rate 0.0313 kg/ha,6.2
same,CASOB herbicidal rating,[1]; rate 0.0625 kg/ha,8.0
same,CASOB herbicidal rating,[1]; rate 0.1250 kg/ha,9.0
same,CASOB herbicidal rating,[1]; rate 0.2500 kg/ha,9.0
same,CHEAL herbicidal rating,[2]; rate 0.0157 kg/ha,9.0
same,CHEAL herbicidal rating,[2]; rate 0.0313 kg/ha,8.2
same,CHEAL herbicidal rating,[2]; rate 0.0625 kg/ha,9.0
same,CHEAL herbicidal rating,[2]; rate 0.1250 kg/ha,9.0
same,CHEAL herbicidal rating,[2]; rate 0.2500 kg/ha,9.0
same,GALAP herbicidal rating,[3]; rate 0.0157 kg/ha,5.0
same,GALAP herbicidal rating,[3]; rate 0.0313 kg/ha,5.3
same,GALAP herbicidal rating,[3]; rate 0.0625 kg/ha,6.8
same,GALAP herbicidal rating,[3]; rate 0.1250 kg/ha,8.4
same,GALAP herbicidal rating,[3]; rate 0.2500 kg/ha,9.0
same,ORYSAT herbicidal rating,[4]; rate 0.0157 kg/ha,3.0
same,ORYSAT herbicidal rating,[4]; rate 0.0313 kg/ha,4.2
same,ORYSAT herbicidal rating,[4]; rate 0.0625 kg/ha,5.7
same,ORYSAT herbicidal rating,[4]; rate 0.1250 kg/ha,7.3
same,ORYSAT herbicidal rating,[4]; rate 0.2500 kg/ha,7.5
same,ZEAMX herbicidal rating,[5]; rate 0.0157 kg/ha,8.0
same,ZEAMX herbicidal rating,[5]; rate 0.0313 kg/ha,8.1
same,ZEAMX herbicidal rating,[5]; rate 0.0625 kg/ha,8.4
same,ZEAMX herbicidal rating,[5]; rate 0.1250 kg/ha,8.7
same,ZEAMX herbicidal rating,[5]; rate 0.2500 kg/ha,9.0
same,AMBEL preemergence herbicidal rating,[6]; rate 0.0156 kg/ha,2.3
same,AMBEL preemergence herbicidal rating,[6]; rate 0.0313 kg/ha,4.5
same,AMBEL preemergence herbicidal rating,[6]; rate 0.0625 kg/ha,7.8
same,AMBEL preemergence herbicidal rating,[6]; rate 0.1250 kg/ha,8.5
same,AMBEL preemergence herbicidal rating,[6]; rate 0.2500 kg/ha,8.9
same,AMBEL preemergence herbicidal rating,[6]; rate 0.5000 kg/ha,9.0
same,SETVI preemergence herbicidal rating,[7]; rate 0.0156 kg/ha,0.2
same,SETVI preemergence herbicidal rating,[7]; rate 0.0313 kg/ha,1.0
same,SETVI preemergence herbicidal rating,[7]; rate 0.0625 kg/ha,3.7
same,SETVI preemergence herbicidal rating,[7]; rate 0.1250 kg/ha,7.5
same,SETVI preemergence herbicidal rating,[7]; rate 0.2500 kg/ha,8.5
same,SETVI preemergence herbicidal rating,[7]; rate 0.5000 kg/ha,8.9
same,GLXMAW preemergence herbicidal rating,[8]; rate 0.0156 kg/ha,0.5
same,GLXMAW preemergence herbicidal rating,[8]; rate 0.0313 kg/ha,0.7
same,GLXMAW preemergence herbicidal rating,[8]; rate 0.0625 kg/ha,1.5
same,GLXMAW preemergence herbicidal rating,[8]; rate 0.1250 kg/ha,4.5
same,GLXMAW preemergence herbicidal rating,[8]; rate 0.2500 kg/ha,7.7
same,GLXMAW preemergence herbicidal rating,[8]; rate 0.5000 kg/ha,9.0
same,ORYSAT preemergence herbicidal rating,[9]; rate 0.0156 kg/ha,0.1
same,ORYSAT preemergence herbicidal rating,[9]; rate 0.0313 kg/ha,0.3
same,ORYSAT preemergence herbicidal rating,[9]; rate 0.0625 kg/ha,1.0
same,ORYSAT preemergence herbicidal rating,[9]; rate 0.1250 kg/ha,2.2
same,ORYSAT preemergence herbicidal rating,[9]; rate 0.2500 kg/ha,4.3
same,ORYSAT preemergence herbicidal rating,[9]; rate 0.5000 kg/ha,6.4
same,Herbicidal rating CYPSE,[10]; 0.0313 kg/ha,0.0
same,Herbicidal rating CYPSE,[10]; 0.0625 kg/ha,0.0
same,Herbicidal rating CYPSE,[10]; 0.1250 kg/ha,0.0
same,Herbicidal rating CYPSE,[10]; 0.2500 kg/ha,0.0
same,Herbicidal rating MOOVA,[11]; 0.0313 kg/ha,9.0
same,Herbicidal rating MOOVA,[11]; 0.0625 kg/ha,9.0
same,Herbicidal rating MOOVA,[11]; 0.1250 kg/ha,9.0
same,Herbicidal rating MOOVA,[11]; 0.2500 kg/ha,3.0
same,Herbicidal rating CYPIR,[12]; rate 0.0313 kg/ha,0.0
same,Herbicidal rating CYPIR,[12]; rate 0.0625 kg/ha,0.0
same,Herbicidal rating CYPIR,[12]; rate 0.1250 kg/ha,4.0
same,Herbicidal rating CYPIR,[12]; rate 0.2500 kg/ha,9.0
same,Herbicidal rating CYPSE,[13]; rate 0.0313 kg/ha,0.0
same,Herbicidal rating CYPSE,[13]; rate 0.0625 kg/ha,0.0
same,Herbicidal rating CYPSE,[13]; rate 0.1250 kg/ha,0.0
same,Herbicidal rating CYPSE,[13]; rate 0.2500 kg/ha,0.0
same,Herbicidal rating SAGPY,[14]; rate 0.0313 kg/ha,0.0
same,Herbicidal rating SAGPY,[14]; rate 0.0625 kg/ha,0.0
same,Herbicidal rating SAGPY,[14]; rate 0.1250 kg/ha,0.0
same,Herbicidal rating SAGPY,[14]; rate 0.2500 kg/ha,0.0
"CCOC(=O)CN1C(=O)C(=Cc2ccccc2)SC1=Nc1cc(-n2c(=O)cc(C(F)(F)F)n(C)c2=O)c(F)cc1Cl [Compound 19, Ethyl 5-benzylidene-2-{{2-chloro-5-[3,6-dihydro-3-methyl-2,6-dioxo-4-(trifluoromethyl)-1(2H)-pyrimidinyl]-4-fluorophenyl}imino}-4-oxo-3-thiazolidineacetate]",CASOB herbicidal rating,[1]; rate 0.0158 kg/ha,0.0
same,CASOB herbicidal rating,[1]; rate 0.0315 kg/ha,1.0
same,CASOB herbicidal rating,[1]; rate 0.0630 kg/ha,1.0
same,CHEAL herbicidal rating,[2]; rate 0.0158 kg/ha,3.0
same,CHEAL herbicidal rating,[2]; rate 0.0315 kg/ha,7.0
same,CHEAL herbicidal rating,[2]; rate 0.0630 kg/ha,9.0
same,GALAP herbicidal rating,[3]; rate 0.0158 kg/ha,2.0
same,GALAP herbicidal rating,[3]; rate 0.0315 kg/ha,3.0
same,GALAP herbicidal rating,[3]; rate 0.0630 kg/ha,3.0
same,ORYSAT herbicidal rating,[4]; rate 0.0158 kg/ha,1.5
same,ORYSAT herbicidal rating,[4]; rate 0.0315 kg/ha,2.0
same,ORYSAT herbicidal rating,[4]; rate 0.0630 kg/ha,2.5
same,ZEAMX herbicidal rating,[5]; rate 0.0158 kg/ha,4.0
same,ZEAMX herbicidal rating,[5]; rate 0.0315 kg/ha,4.5
same,ZEAMX herbicidal rating,[5]; rate 0.0630 kg/ha,5.0
same,AMBEL preemergence herbicidal rating,[6]; rate 0.1250 kg/ha,0.0
same,AMBEL preemergence herbicidal rating,[6]; rate 0.2500 kg/ha,1.0
same,SETVI preemergence herbicidal rating,[7]; rate 0.1250 kg/ha,0.0
same,SETVI preemergence herbicidal rating,[7]; rate 0.2500 kg/ha,0.0
same,GLXMAW preemergence herbicidal rating,[8]; rate 0.1250 kg/ha,0.0
same,GLXMAW preemergence herbicidal rating,[8]; rate 0.2500 kg/ha,0.0
same,ORYSAT preemergence herbicidal rating,[9]; rate 0.1250 kg/ha,0.0
same,ORYSAT preemergence herbicidal rating,[9]; rate 0.2500 kg/ha,0.0
same,Herbicidal rating CYPSE,[10]; 0.1160 kg/ha,4.0
same,Herbicidal rating CYPSE,[10]; 0.2310 kg/ha,4.0
same,Herbicidal rating CYPSE,[10]; 0.4630 kg/ha,4.0
same,Herbicidal rating MOOVA,[11]; 0.1160 kg/ha,9.0
same,Herbicidal rating MOOVA,[11]; 0.2310 kg/ha,9.0
same,Herbicidal rating MOOVA,[11]; 0.4630 kg/ha,9.0
same,Herbicidal rating CYPIR,[12]; rate 0.1160 kg/ha,0.0
same,Herbicidal rating CYPIR,[12]; rate 0.2310 kg/ha,0.0
same,Herbicidal rating CYPIR,[12]; rate 0.4630 kg/ha,0.0
same,Herbicidal rating CYPSE,[13]; rate 0.1160 kg/ha,4.0
same,Herbicidal rating CYPSE,[13]; rate 0.2310 kg/ha,4.0
same,Herbicidal rating CYPSE,[13]; rate 0.4630 kg/ha,4.0
same,Herbicidal rating SAGPY,[14]; rate 0.1160 kg/ha,0.0
same,Herbicidal rating SAGPY,[14]; rate 0.2310 kg/ha,3.0
same,Herbicidal rating SAGPY,[14]; rate 0.4630 kg/ha,3.0
